Assay results reported in ChEMBL document CHEMBL5653615 (J Biol Chem, 2013).

Experiments:
[1] = target: Dual specificity protein kinase CLK3 (Homo sapiens) (UniProt P49761); experiment: Inhibition of human CLK3 at 18.6 nM by HotSpot assay relative to control
[2] = target: Interleukin-1 receptor-associated kinase 1 (Homo sapiens) (UniProt P51617); experiment: Inhibition of human IRAK1 at 18.6 nM by HotSpot assay relative to control
[3] = target: LIM domain kinase 1 (Homo sapiens) (UniProt P53667); experiment: Inhibition of human LIMK1 at 18.6 nM by HotSpot assay relative to control
[4] = species on record: Homo sapiens; experiment: Inhibition of human TAO1 at 18.6 nM by HotSpot assay relative to control
[5] = target: Serine/threonine-protein kinase WNK2 (Homo sapiens) (UniProt Q9Y3S1); experiment: Inhibition of human WNK2 at 18.6 nM by HotSpot assay relative to control
[6] = target: Mitogen-activated protein kinase kinase kinase 20 (Homo sapiens) (UniProt Q9NYL2); experiment: Inhibition of human MLTK at 18.6 nM by HotSpot assay relative to control
[7] = target: CDK3/Cyclin E (Homo sapiens) (UniProt P24864+Q00526); experiment: Inhibition of human CDK3/cyclin E at 1.82 nM by HotSpot assay relative to control; type: protein-complex assay
[8] = target: Casein kinase I isoform delta (Homo sapiens) (UniProt P48730); experiment: Inhibition of human CK1d at 1.82 nM by HotSpot assay relative to control
[9] = target: Homeodomain-interacting protein kinase 3 (Homo sapiens) (UniProt Q9H422); experiment: Inhibition of human HIPK3 at 1.82 nM by HotSpot assay relative to control
[10] = target: Mitogen-activated protein kinase 10 (Homo sapiens) (UniProt P53779); experiment: Inhibition of human JNK3 at 1.82 nM by HotSpot assay relative to control
[11] = target: T1, Serine/threonine-protein kinase Nek9 (Homo sapiens) (UniProt Q8TD19); experiment: Inhibition of human NEK9 at 1.82 nM by HotSpot assay relative to control
T1 sequence (whole entry): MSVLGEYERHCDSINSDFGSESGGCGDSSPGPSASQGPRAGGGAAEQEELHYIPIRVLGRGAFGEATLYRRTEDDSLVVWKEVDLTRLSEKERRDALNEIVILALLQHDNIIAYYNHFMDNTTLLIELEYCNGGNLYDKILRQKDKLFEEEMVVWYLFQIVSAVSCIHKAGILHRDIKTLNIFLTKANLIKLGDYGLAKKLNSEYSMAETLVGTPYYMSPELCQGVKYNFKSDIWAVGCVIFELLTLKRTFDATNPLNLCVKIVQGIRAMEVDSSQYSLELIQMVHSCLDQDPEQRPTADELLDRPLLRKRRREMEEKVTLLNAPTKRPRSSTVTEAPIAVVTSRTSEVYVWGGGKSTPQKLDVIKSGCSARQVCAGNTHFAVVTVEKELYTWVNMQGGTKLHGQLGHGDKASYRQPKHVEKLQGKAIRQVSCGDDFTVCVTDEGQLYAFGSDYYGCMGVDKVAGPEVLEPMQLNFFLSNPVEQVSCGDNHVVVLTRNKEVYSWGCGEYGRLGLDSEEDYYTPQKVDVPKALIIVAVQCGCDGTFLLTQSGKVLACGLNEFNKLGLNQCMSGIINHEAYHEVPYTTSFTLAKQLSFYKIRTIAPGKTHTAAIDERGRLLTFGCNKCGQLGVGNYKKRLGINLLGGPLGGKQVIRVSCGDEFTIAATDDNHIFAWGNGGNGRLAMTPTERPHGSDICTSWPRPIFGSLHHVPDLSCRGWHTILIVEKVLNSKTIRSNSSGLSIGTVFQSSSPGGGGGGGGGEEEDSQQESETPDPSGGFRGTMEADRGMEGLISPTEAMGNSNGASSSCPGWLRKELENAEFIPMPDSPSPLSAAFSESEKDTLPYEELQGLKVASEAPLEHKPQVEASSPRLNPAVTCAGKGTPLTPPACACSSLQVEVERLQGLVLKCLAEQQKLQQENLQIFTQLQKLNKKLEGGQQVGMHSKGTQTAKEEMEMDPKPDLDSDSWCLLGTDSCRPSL

[12] = target: Platelet-derived growth factor receptor beta (Homo sapiens) (UniProt P09619); experiment: Inhibition of human PDGFRb at 1.82 nM by HotSpot assay relative to control
[13] = target: Serine/threonine-protein kinase N1 (Homo sapiens) (UniProt Q16512); experiment: Inhibition of human PRK1 at 1.82 nM by HotSpot assay relative to control
[14] = target: T2, Serine/threonine-protein kinase Sgk3 (Homo sapiens) (UniProt Q96BR1); experiment: Inhibition of human SGKL at 1.82 nM by HotSpot assay relative to control
T2 sequence (whole entry): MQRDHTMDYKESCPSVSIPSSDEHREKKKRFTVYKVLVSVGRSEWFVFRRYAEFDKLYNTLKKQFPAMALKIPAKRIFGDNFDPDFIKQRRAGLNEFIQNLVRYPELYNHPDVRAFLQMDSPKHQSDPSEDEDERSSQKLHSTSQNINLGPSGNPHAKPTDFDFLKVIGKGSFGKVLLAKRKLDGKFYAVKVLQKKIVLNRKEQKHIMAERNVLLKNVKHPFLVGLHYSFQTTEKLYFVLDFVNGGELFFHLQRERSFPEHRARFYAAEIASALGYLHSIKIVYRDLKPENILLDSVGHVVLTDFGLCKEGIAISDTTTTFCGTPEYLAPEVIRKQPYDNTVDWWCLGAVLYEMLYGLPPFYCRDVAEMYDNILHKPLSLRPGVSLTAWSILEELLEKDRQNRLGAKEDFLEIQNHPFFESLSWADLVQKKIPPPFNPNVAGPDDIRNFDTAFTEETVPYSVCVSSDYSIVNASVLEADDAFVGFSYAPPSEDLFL

[15] = target: Death-associated protein kinase 3 (Homo sapiens) (UniProt O43293); experiment: Inhibition of human DAPK3 at 1.82 nM by HotSpot assay relative to control

Chain of Mitogen-activated protein kinase 10 (Homo sapiens) (P53779 whole entry): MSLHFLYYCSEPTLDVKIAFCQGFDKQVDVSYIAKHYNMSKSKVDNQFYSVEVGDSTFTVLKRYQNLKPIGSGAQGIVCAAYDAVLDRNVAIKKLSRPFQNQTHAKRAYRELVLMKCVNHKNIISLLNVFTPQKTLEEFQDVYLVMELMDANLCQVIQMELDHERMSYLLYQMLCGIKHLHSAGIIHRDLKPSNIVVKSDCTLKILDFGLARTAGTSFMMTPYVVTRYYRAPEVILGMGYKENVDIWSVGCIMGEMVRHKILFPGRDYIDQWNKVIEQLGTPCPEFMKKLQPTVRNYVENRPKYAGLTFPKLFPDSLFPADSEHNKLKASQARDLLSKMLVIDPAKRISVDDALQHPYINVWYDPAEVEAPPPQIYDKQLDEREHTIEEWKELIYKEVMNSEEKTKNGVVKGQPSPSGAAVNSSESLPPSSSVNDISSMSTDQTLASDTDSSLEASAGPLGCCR
Chain of Casein kinase I isoform delta (Homo sapiens) (P48730 whole entry, looked up, canonical isoform): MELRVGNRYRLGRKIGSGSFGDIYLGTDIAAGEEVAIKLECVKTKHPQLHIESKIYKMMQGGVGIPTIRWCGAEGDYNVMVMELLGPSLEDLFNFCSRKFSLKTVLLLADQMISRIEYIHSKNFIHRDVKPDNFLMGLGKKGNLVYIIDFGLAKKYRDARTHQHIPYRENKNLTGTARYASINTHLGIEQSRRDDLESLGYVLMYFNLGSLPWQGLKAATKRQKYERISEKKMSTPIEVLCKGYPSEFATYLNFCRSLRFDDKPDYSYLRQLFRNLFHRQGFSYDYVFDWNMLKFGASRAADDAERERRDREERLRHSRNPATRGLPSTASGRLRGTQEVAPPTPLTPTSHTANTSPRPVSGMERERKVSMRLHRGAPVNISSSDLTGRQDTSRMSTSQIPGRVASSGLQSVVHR
Chain of Dual specificity protein kinase CLK3 (Homo sapiens) (P49761 whole entry, looked up): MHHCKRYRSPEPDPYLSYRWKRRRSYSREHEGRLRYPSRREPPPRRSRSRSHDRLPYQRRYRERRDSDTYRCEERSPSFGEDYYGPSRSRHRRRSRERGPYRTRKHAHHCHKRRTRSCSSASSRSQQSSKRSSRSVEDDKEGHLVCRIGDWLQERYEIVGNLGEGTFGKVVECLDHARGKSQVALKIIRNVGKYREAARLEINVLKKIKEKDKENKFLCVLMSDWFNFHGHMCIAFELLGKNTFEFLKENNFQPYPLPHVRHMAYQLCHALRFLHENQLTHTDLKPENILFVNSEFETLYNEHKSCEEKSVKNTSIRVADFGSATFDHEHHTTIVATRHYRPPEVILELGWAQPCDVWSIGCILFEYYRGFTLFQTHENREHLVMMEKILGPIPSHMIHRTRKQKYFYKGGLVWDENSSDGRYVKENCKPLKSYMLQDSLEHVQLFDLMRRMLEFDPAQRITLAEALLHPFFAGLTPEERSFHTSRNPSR
Chain of Mitogen-activated protein kinase kinase kinase 20 (Homo sapiens) (Q9NYL2 2-800 limits assumed): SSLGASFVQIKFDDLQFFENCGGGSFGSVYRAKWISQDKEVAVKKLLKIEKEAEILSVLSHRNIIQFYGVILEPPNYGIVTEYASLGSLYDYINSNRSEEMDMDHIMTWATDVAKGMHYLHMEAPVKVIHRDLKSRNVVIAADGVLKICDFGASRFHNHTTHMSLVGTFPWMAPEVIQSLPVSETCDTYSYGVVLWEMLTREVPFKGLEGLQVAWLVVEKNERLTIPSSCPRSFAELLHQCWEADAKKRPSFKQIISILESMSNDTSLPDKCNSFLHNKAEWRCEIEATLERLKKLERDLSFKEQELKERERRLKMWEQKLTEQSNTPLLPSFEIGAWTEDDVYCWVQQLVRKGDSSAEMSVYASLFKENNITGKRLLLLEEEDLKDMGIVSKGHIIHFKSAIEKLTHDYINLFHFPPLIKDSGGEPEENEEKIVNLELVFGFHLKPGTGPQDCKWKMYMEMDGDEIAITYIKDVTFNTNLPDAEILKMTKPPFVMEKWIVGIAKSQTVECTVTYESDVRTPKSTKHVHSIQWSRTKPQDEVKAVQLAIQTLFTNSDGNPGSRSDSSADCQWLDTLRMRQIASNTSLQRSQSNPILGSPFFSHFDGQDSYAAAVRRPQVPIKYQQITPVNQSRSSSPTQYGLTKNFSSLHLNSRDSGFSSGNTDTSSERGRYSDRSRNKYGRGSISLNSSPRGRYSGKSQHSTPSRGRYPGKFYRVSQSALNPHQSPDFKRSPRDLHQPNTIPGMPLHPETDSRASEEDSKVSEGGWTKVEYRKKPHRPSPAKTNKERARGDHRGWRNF
Chain of Serine/threonine-protein kinase N1 (Homo sapiens) (Q16512 2-942 limits assumed): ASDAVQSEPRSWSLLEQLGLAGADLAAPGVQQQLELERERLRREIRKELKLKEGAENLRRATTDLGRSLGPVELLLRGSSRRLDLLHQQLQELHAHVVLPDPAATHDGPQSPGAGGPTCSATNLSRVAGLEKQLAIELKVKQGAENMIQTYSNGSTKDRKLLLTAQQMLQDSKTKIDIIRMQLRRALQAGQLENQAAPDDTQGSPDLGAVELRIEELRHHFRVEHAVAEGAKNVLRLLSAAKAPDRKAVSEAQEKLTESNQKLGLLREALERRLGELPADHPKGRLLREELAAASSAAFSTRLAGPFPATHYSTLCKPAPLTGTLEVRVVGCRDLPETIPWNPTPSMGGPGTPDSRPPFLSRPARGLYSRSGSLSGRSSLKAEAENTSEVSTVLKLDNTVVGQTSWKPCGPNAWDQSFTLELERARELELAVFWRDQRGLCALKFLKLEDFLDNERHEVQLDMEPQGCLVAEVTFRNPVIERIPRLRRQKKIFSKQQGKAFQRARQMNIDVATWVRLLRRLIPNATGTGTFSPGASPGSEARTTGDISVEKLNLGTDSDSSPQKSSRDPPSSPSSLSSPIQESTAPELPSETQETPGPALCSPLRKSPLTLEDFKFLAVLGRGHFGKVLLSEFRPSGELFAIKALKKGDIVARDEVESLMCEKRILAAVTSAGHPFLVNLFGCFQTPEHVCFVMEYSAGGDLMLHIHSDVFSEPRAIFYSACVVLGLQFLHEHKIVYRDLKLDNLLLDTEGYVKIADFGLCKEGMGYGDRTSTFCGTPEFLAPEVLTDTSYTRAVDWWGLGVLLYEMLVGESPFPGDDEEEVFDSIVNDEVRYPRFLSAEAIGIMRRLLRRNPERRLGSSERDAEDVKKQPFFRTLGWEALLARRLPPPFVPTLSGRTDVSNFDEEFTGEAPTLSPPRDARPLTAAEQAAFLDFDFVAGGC
Chain of Platelet-derived growth factor receptor beta (Homo sapiens) (P09619 whole entry): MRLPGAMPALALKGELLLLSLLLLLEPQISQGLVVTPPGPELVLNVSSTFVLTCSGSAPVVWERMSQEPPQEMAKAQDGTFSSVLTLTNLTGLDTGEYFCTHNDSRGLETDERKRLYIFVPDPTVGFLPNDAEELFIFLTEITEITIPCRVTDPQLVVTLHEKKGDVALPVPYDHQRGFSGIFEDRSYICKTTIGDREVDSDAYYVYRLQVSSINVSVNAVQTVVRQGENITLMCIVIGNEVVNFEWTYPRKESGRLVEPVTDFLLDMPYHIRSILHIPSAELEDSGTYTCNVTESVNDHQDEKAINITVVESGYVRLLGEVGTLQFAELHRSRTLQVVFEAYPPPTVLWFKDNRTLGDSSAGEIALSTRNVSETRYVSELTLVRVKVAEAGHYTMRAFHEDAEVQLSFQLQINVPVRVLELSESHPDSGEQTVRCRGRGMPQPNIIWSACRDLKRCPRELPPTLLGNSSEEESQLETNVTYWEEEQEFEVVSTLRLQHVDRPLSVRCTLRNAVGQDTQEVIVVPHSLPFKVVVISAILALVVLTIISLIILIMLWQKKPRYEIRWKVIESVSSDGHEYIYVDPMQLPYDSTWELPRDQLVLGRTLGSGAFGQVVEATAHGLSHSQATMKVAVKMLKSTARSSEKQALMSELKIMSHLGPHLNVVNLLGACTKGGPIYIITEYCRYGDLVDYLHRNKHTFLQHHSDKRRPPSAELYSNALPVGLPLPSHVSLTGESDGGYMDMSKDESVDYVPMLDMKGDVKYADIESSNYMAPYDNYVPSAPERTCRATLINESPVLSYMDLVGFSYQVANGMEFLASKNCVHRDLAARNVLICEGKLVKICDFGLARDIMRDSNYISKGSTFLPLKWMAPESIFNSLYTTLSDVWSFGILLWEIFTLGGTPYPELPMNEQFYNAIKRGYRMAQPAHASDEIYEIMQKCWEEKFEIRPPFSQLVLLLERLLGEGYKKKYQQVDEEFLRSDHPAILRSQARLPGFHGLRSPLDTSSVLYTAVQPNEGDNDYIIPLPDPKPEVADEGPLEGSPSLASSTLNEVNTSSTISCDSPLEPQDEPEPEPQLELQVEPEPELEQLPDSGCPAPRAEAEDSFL
Chain of CDK3/Cyclin E (Homo sapiens) (P24864 whole entry, looked up, canonical isoform): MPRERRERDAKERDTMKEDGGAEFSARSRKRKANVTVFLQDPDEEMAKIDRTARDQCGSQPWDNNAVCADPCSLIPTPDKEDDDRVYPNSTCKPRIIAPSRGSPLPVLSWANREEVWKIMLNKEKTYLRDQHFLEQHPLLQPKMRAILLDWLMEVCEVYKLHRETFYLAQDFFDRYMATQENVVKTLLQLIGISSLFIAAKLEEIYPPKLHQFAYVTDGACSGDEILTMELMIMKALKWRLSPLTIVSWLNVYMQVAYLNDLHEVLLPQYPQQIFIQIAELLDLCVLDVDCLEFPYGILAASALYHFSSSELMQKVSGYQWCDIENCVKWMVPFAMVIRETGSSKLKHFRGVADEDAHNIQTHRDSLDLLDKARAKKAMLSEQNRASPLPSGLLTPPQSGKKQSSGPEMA
Chain of CDK3/Cyclin E (Homo sapiens) (Q00526 whole entry, looked up, canonical isoform): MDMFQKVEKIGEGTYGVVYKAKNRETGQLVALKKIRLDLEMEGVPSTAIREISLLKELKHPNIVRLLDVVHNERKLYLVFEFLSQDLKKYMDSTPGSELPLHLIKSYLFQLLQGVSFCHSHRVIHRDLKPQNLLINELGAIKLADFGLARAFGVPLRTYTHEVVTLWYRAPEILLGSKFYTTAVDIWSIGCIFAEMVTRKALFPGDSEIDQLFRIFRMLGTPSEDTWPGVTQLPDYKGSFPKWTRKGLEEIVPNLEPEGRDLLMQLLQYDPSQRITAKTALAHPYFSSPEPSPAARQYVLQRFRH

inhibition [1] | inhibition [2] | inhibition [3] | inhibition [4] | inhibition [5] | inhibition [6] | inhibition [7] | inhibition [8] | inhibition [9] | inhibition [10] | inhibition [12] | inhibition [13] | inhibition [14] | Structure (SMILES) | inhibition [11] | inhibition [15]
-0.8% | -8.8% | -8.11% | 1.8% | -2.52% | -2.34% |  |  |  |  |  |  |  | C[C@]1(O)C[C@@H](c2nc(-c3ccc4ccc(-c5ccccc5)nc4c3)c3c(N)nccn32)C1 |  | 
 |  |  |  |  |  | 0.42% | 0.92% | -3.9% | -8.84% | 10.8% | -8.35% | -2.25% | C[C@@]1(C(=O)Nc2ccc(F)nc2)CCCN1c1nc(Nc2cc(C3CC3)n[nH]2)c2cccn2n1 | -1.18% | 10.5%
